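Each compound was tested at five concentrations against cells in 96-well plates for 48 hours. Abbreviation: GI50, concentration required for 50% inhibition of growth.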 The source made the active and inactive calls. Rule as the data show it: active = GI50 up to about 1.1 µM and inactive = higher.
Tests used:
Assay in all cases: NCI anticancer screen, dose series, 48 h
UO-31 = system: UO-31
SF-295 = system: SF-295
NCI/ADR-RES = system: NCI/ADR-RES
SNB-19 = system: SNB-19
MOLT-4 = system: MOLT-4
NCI-H522 = system: NCI-H522
PC-3 = system: PC-3
U-251 = system: U-251
HCT-15 = system: HCT-15
HL-60 = system: HL-60
SN12C = system: SN12C
LOX IMVI = system: LOX IMVI
M14 = system: M14
NCI-H226 = system: NCI-H226
OVCAR-4 = system: OVCAR-4

Structure (SMILES) | GI50 (UO-31) | GI50 (SF-295) | GI50 (NCI/ADR-RES) | GI50 (SNB-19) | GI50 (MOLT-4) | GI50 (NCI-H522) | GI50 (PC-3) | GI50 (U-251) | GI50 (HCT-15) [µM] | GI50 (HL-60) | GI50 (SN12C) | GI50 (LOX IMVI) | GI50 (M14) | GI50 (NCI-H226) | GI50 (OVCAR-4)
CC(=O)OC12CC[N+]3(C)CCCCC3C1=Nc1ccccc12 (stereo not given) | > 100 µM (inactive) | > 100 µM (inactive) | > 100 µM (inactive) | > 100 µM (inactive) | > 100 µM (inactive) | > 100 µM (inactive) | > 100 µM (inactive) | > 100 µM (inactive) | > 100 | > 100 µM (inactive) | > 100 µM (inactive) | > 100 µM (inactive) | > 100 µM (inactive) | > 100 µM (inactive) | > 100 µM (inactive)
CN(C)CCNCCN | > 100 µM (inactive) | > 100 µM (inactive) | > 100 µM (inactive) | > 100 µM (inactive) | > 100 µM (inactive) | > 100 µM (inactive) | > 100 µM (inactive) | > 100 µM (inactive) | > 100 | > 100 µM (inactive) | > 100 µM (inactive) | > 100 µM (inactive) | > 100 µM (inactive) | > 100 µM (inactive) | > 100 µM (inactive)
COc1cc2c(cc1O)C1Cc3ccc(OC)c(O)c3C(C2)N1C (stereo not given) | > 100 µM (inactive) | > 100 µM (inactive) | > 100 µM (inactive) | > 100 µM (inactive) | 58.1 µM (inactive) | > 100 µM (inactive) | 90.8 µM (inactive) | > 100 µM (inactive) | > 100 | > 100 µM (inactive) | > 100 µM (inactive) | > 100 µM (inactive) | > 100 µM (inactive) | > 100 µM (inactive) | > 100 µM (inactive)
COc1cccc2c1-c1c(OC)cccc1SS2 | 22.8 µM (inactive) | 19.9 µM (inactive) | 36.6 µM (inactive) | 24.8 µM (inactive) | 13.4 µM (inactive) | 19.7 µM (inactive) | 32.5 µM (inactive) | 15.7 µM (inactive) | 13.4 | 1.01 µM (active) | 13.8 µM (inactive) | 10.7 µM (inactive) | 27 µM (inactive) | 16 µM (inactive) | 21.8 µM (inactive)
C/C=C/[P+](c1ccccc1)(c1ccccc1)c1ccccc1 | 26.7 µM (inactive) | 2.26 µM (inactive) | > 100 µM (inactive) | 0.299 µM (active) | 2.42 µM (inactive) | 0.836 µM (active) | 0.962 µM (active) | 0.102 µM (active) | 25.5 | 0.78 µM (active) | 1.79 µM (inactive) | 1.34 µM (inactive) | 4.92 µM (inactive) | 3.57 µM (inactive) | 2.77 µM (inactive)
COc1ccc(/C=N/N=C(\N)NO)c(OC)c1OC | 20.8 µM (inactive) | 31.6 µM (inactive) | 14 µM (inactive) | > 100 µM (inactive) | 42.3 µM (inactive) | 36.6 µM (inactive) | 36.3 µM (inactive) | 42.1 µM (inactive) | 35.2 | 23.1 µM (inactive) | 34.4 µM (inactive) | 23.4 µM (inactive) | 44.4 µM (inactive) | 23.4 µM (inactive) | 53.7 µM (inactive)
C=CCOc1ccc(C(=N/NC(=O)c2ccccc2)/N=N/c2ccc(C)cc2)cc1OC | 24.8 µM (inactive) | 32 µM (inactive) | 35.7 µM (inactive) | 50 µM (inactive) | 26.5 µM (inactive) | 16.4 µM (inactive) | 25.7 µM (inactive) | 10.4 µM (inactive) | 35.1 | 4.83 µM (inactive) | 31.7 µM (inactive) | 14.7 µM (inactive) | 22.7 µM (inactive) | 20.6 µM (inactive) | 37.9 µM (inactive)
O=C(Nc1ccc(Cl)cc1)c1cc(S(=O)(=O)Nc2n[nH]c(=O)[nH]2)c(SSc2cc(Cl)c(C(=O)Nc3ccc(Cl)cc3)cc2S(=O)(=O)Nc2n[nH]c(=O)[nH]2)cc1Cl | > 100 µM (inactive) | > 100 µM (inactive) | > 100 µM (inactive) | > 100 µM (inactive) | > 100 µM (inactive) | > 100 µM (inactive) | > 100 µM (inactive) | > 100 µM (inactive) | > 100 | > 100 µM (inactive) | > 100 µM (inactive) | > 100 µM (inactive) | > 100 µM (inactive) | > 100 µM (inactive) | > 100 µM (inactive)
OCc1cc2c([nH]c3ccccc32)c(C(O)CO)n1 (stereo not given) | > 100 µM (inactive) | > 100 µM (inactive) | > 100 µM (inactive) | > 100 µM (inactive) | > 100 µM (inactive) | > 100 µM (inactive) | > 100 µM (inactive) | > 100 µM (inactive) | > 100 | > 100 µM (inactive) | > 100 µM (inactive) | > 100 µM (inactive) | > 100 µM (inactive) | > 100 µM (inactive) | > 100 µM (inactive)
CC(=O)NC(Cc1ccc(OP(=O)(OCc2ccc([N+](=O)[O-])o2)N(C)CCCCCl)cc1)C(=O)NC(C)c1ccc(OCC2CCCCC2)c(C(N)=O)c1 (stereo not given) | 17.3 µM (inactive) | 4.74 µM (inactive) | 31.2 µM (inactive) | 3.9 µM (inactive) | 3.53 µM (inactive) | 3.73 µM (inactive) | 2.79 µM (inactive) | 2.48 µM (inactive) | 20.4 | 2.79 µM (inactive) | 2.34 µM (inactive) | 1.97 µM (inactive) | 2.22 µM (inactive) | 5.94 µM (inactive) | 3.66 µM (inactive)
CC(=O)O[C@H]1[C@@H](OC2CCCC2(c2ccccc2)c2ccccc2)O[N+]([O-])=C[C@@H]1c1ccccc1 (stereo not given in full) | 10.7 µM (inactive) | 8.13 µM (inactive) | 5.42 µM (inactive) | 15.6 µM (inactive) | 2.63 µM (inactive) | 1.26 µM (inactive) | 8.24 µM (inactive) | 7.83 µM (inactive) | 4.75 | 2.01 µM (inactive) | 4.66 µM (inactive) | 2.1 µM (inactive) | 6.18 µM (inactive) | 20.7 µM (inactive) | 6.46 µM (inactive)
Cc1cc2nc(C=C(C(F)(F)F)C(F)(F)F)sc2cc1C | 2.53 µM (inactive) | 3.15 µM (inactive) | 0.55 µM (active) | 3.44 µM (inactive) | 0.11 µM (active) | 0.31 µM (active) | 1.65 µM (inactive) | 0.871 µM (active) | 1.71 | 0.482 µM (active) | 0.501 µM (active) | 0.294 µM (active) | 0.782 µM (active) | 1.21 µM (inactive) | 2.99 µM (inactive)
Cn1c(=O)c2c(ncn2Cc2ccc(O)c([N+](=O)[O-])c2)n(C)c1=O | > 100 µM (inactive) | > 100 µM (inactive) | > 100 µM (inactive) | > 100 µM (inactive) | > 100 µM (inactive) | > 100 µM (inactive) | > 100 µM (inactive) | > 100 µM (inactive) | > 100 | > 100 µM (inactive) | > 100 µM (inactive) | > 100 µM (inactive) | > 100 µM (inactive) | > 100 µM (inactive) | > 100 µM (inactive)
O=CNCCCN1CCN(CCCNC=O)CC1 | > 100 µM (inactive) | > 100 µM (inactive) | > 100 µM (inactive) | > 100 µM (inactive) | > 100 µM (inactive) | 1.6 µM (inactive) | > 100 µM (inactive) | > 100 µM (inactive) | > 100 | > 100 µM (inactive) | > 100 µM (inactive) | > 100 µM (inactive) | > 100 µM (inactive) | > 100 µM (inactive) | > 100 µM (inactive)
CSC(=S)Nc1cc(C)ccn1 | > 100 µM (inactive) | 76.7 µM (inactive) | 60.5 µM (inactive) | > 100 µM (inactive) | > 100 µM (inactive) | 40.7 µM (inactive) | > 100 µM (inactive) | 67.8 µM (inactive) | > 100 | > 100 µM (inactive) | 57.7 µM (inactive) | > 100 µM (inactive) | > 100 µM (inactive) | > 100 µM (inactive) | 39.1 µM (inactive)
COC(=O)C(=O)C(C(=O)C(=O)Nc1cccc(OC)c1)c1nc2ccc(Cl)cc2nc1O (stereo not given) | > 100 µM (inactive) | > 100 µM (inactive) | > 100 µM (inactive) | > 100 µM (inactive) | > 100 µM (inactive) | > 100 µM (inactive) | > 100 µM (inactive) | > 100 µM (inactive) | > 100 | > 100 µM (inactive) | > 100 µM (inactive) | > 100 µM (inactive) | > 100 µM (inactive) | > 100 µM (inactive) | > 100 µM (inactive)
N#CC1=C(N)N2C(=O)/C(=C/c3ccccc3O)N=C2S1 | 94.6 µM (inactive) | > 100 µM (inactive) | > 100 µM (inactive) | > 100 µM (inactive) | 18.5 µM (inactive) | 47.8 µM (inactive) | > 100 µM (inactive) | > 100 µM (inactive) | 33.5 | 20.8 µM (inactive) | > 100 µM (inactive) | 53.2 µM (inactive) | 49.9 µM (inactive) | > 100 µM (inactive) | 44.5 µM (inactive)
CN(C)Cc1cc(C(=O)/C=C/c2ccc(Cl)cc2Cl)cc(CN(C)C)c1O | 2.07 µM (inactive) | 3.34 µM (inactive) | 1.75 µM (inactive) | 4.12 µM (inactive) | 1.88 µM (inactive) | 2.56 µM (inactive) | 1.65 µM (inactive) | 3.52 µM (inactive) | 3.17 | 1.96 µM (inactive) | 1.78 µM (inactive) | 1.2 µM (inactive) | 2.75 µM (inactive) | 8.57 µM (inactive) | 2.22 µM (inactive)
